The values below come from PubChem BioAssay (NCI).

Test systems include SNB-75 CNS; OVCAR-5 ovarian; MDA-MB-231 breast; NCI-H460 lung; IGROV1 ovarian; SF-539 CNS; SNB-19 CNS; COLO 205 colon; SK-MEL-2 melanoma; MDA-N.
Holding throughout (test): NCI tumour cell line growth inhibition, 48 h

SMILES strings stand for the structures.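 Assay format: 96-well plates, 48-hour exposure. GI50: concentration for 50% inhibition of growth. TGI marks complete inhibition of growth.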

Turning to `COc1cc2nc(-c3cccs3)[nH]c(=O)c2cc1OC`, the TGI in the experiment on SNB-75 CNS, with OVCAR-5 ovarian, with MDA-MB-231 breast, in the experiment with NCI-H460 lung, in the experiment with IGROV1 ovarian and with SF-539 CNS was more than 100 µM each time. The TGI in the experiment with SNB-19 CNS, in the experiment on COLO 205 colon and with SK-MEL-2 melanoma was more than 100 µM each time.

As for `CCOC(=O)Oc1ccc2c(c1)c(=O)c1c(NCCN(CC)CC)ccc3nnn2c31`, the TGI in the experiment on MDA-N worked out at 15.6 µM; in the experiment with OVCAR-5 ovarian, 22.7 µM; in the experiment on MDA-MB-231 breast it was 17.6 µM; in the experiment on NCI-H460 lung, 9.44 µM; with IGROV1 ovarian, 21.7 µM; in the experiment on SF-539 CNS, 13.5 µM. In addition, the TGI in the experiment with SNB-19 CNS was 15.9 µM; in the experiment on COLO 205 colon, 14.9 µM; in the experiment on SK-MEL-2 melanoma it was 27 µM.

Regarding `O=C(NNc1nc(-c2ccccc2)cs1)C(F)(F)F`, the TGI in the experiment on SNB-75 CNS is 91 µM; in the experiment with OVCAR-5 ovarian, more than 100 µM; in the experiment with MDA-MB-231 breast, more than 100 µM; with NCI-H460 lung, more than 100 µM; in the experiment with IGROV1 ovarian, more than 100 µM; with SNB-19 CNS it was more than 100 µM. The TGI with COLO 205 colon and with SK-MEL-2 melanoma was more than 100 µM each time.

Turning to `COc1ccc2oc(=O)c(-c3csc(C)n3)cc2c1`, the TGI in the experiment with SNB-75 CNS was 55.6 µM; in the experiment with OVCAR-5 ovarian, more than 100 µM; in the experiment on MDA-MB-231 breast, 68 µM; in the experiment on NCI-H460 lung it was more than 100 µM; in the experiment with IGROV1 ovarian, more than 100 µM; with SF-539 CNS, 57 µM. Moreover, the TGI in the experiment on SNB-19 CNS, in the experiment with COLO 205 colon and in the experiment with SK-MEL-2 melanoma was more than 100 µM throughout.

As to `Cc1nc2ccccc2c(/C=C/c2ccc(Cl)cc2)c1C(=O)/C=C/c1ccc(Cl)cc1`, the GI50 in the experiment with NCI-H460 lung was 1.41 µM; in the experiment on SF-539 CNS, 1.71 µM; in the experiment on SNB-19 CNS it was 1.57 µM. For the same molecule, the TGI in the experiment on NCI-H460 lung is 3.15 µM; in the experiment with SF-539 CNS it was 3.14 µM; with SNB-19 CNS, 2.94 µM.

With `C=CCOCn1cc(C)c(=O)[nH]c1=O`, the TGI with MDA-N, in the experiment on SNB-75 CNS, in the experiment with MDA-MB-231 breast, with NCI-H460 lung, in the experiment on IGROV1 ovarian and in the experiment with SF-539 CNS was more than 100 µM each time. For the same molecule, the TGI in the experiment on SNB-19 CNS and in the experiment on COLO 205 colon was more than 100 µM in each case.

With `O=C(NC(=S)NC(=O)c1cc(O)c(O)c(O)c1)c1cc(O)c(O)c(O)c1`, the TGI was 6.06 µM in the experiment with MDA-N; 78.8 µM with OVCAR-5 ovarian; 74.1 µM in the experiment with MDA-MB-231 breast; more than 100 µM with NCI-H460 lung; more than 100 µM with SF-539 CNS; 52.8 µM with SNB-19 CNS. Besides, the values for the TGI in the experiment with COLO 205 colon and in the experiment on SK-MEL-2 melanoma were 46.7 µM and 40.4 µM, respectively.

On to `O=C(OCC(Cl)(Cl)Cl)O[C@@H]1CCCC1(c1ccccc1)c1ccccc1`, for which the TGI with MDA-N, in the experiment on SNB-75 CNS, with OVCAR-5 ovarian, in the experiment on MDA-MB-231 breast, in the experiment with NCI-H460 lung and in the experiment on IGROV1 ovarian was more than 100 µM in each case. Also, the TGI in the experiment with SNB-19 CNS and in the experiment with COLO 205 colon was more than 100 µM throughout.

For the molecule `CC1C(c2ccc(Cl)cc2)c2cc3c(cc2OC1N1CCOCC1)OCO3` (stereo not drawn), the TGI in the experiment with MDA-N, in the experiment on SNB-75 CNS, in the experiment with OVCAR-5 ovarian, with NCI-H460 lung, with IGROV1 ovarian and in the experiment with SF-539 CNS was more than 100 µM each time. For the same molecule, the TGI with SNB-19 CNS, with COLO 205 colon and in the experiment on SK-MEL-2 melanoma was more than 100 µM in each case.

With `CCOC(=O)C1=COC(C)(CCc2ccccc2)CC1=O` (stereo not drawn), the TGI in the experiment with MDA-N, with SNB-75 CNS, with OVCAR-5 ovarian, in the experiment on MDA-MB-231 breast, with NCI-H460 lung and in the experiment with SF-539 CNS was more than 100 µM in each case. The TGI in the experiment with SNB-19 CNS, with COLO 205 colon and in the experiment with SK-MEL-2 melanoma was more than 100 µM throughout.

Turning to `CC1=NC(=Cc2ccc([N+](=O)[O-])cc2)C(=O)N1n1c(-c2ccccc2)nc2ccccc2c1=O`, the TGI with MDA-N, in the experiment on SNB-75 CNS, in the experiment on MDA-MB-231 breast, with IGROV1 ovarian, in the experiment with SF-539 CNS and in the experiment on SNB-19 CNS was more than 100 µM each time. Moreover, the TGI in the experiment on COLO 205 colon was more than 100 µM.

`CC(=O)[CH-]C(=O)c1ccccc1.CC(=O)[CH-]C(=O)c1ccccc1.C[C@]12CCC(=O)C=C1CC[C@@H]1C2CC[C@@]2(C)C1CC[C@]2(C)[O-].C[C@]12CCC(=O)C=C1CC[C@@H]1C2CC[C@@]2(C)C1CC[C@]2(C)[O-].Cl.[Ti+4]` (stereo partly drawn): the GI50 in the experiment on SNB-75 CNS is 15.7 µM; in the experiment with OVCAR-5 ovarian it was 16.5 µM; in the experiment on NCI-H460 lung, 16.4 µM; with IGROV1 ovarian it was 19.3 µM; in the experiment with SF-539 CNS it was 13.9 µM; with SNB-19 CNS it was 14 µM. Further, the figures for the GI50 in the experiment with COLO 205 colon and in the experiment with SK-MEL-2 melanoma were 37.6 µM and 13.9 µM, respectively. In addition, the TGI is 43.7 µM in the experiment on SNB-75 CNS; more than 100 µM in the experiment on OVCAR-5 ovarian; 49.9 µM with NCI-H460 lung; 46.1 µM in the experiment on IGROV1 ovarian; 29.3 µM in the experiment with SF-539 CNS; 29.3 µM with SNB-19 CNS. In addition, the TGI is more than 100 µM in the experiment with COLO 205 colon and 33.2 µM in the experiment on SK-MEL-2 melanoma.

For the molecule `CC(=O)N(O)c1ccc(-c2nc3ccccc3s2)cc1`, the TGI in the experiment on MDA-N, with SNB-75 CNS, with OVCAR-5 ovarian, in the experiment on MDA-MB-231 breast, in the experiment on NCI-H460 lung and with IGROV1 ovarian was more than 100 µM each time. Moreover, the TGI in the experiment with SNB-19 CNS, in the experiment on COLO 205 colon and in the experiment with SK-MEL-2 melanoma was more than 100 µM each time.

`CSc1c(C(=O)Nc2ccc(Cl)cc2)c(N)n(N)c(=O)c1C#N`: the TGI in the experiment with MDA-N, in the experiment with SNB-75 CNS, in the experiment on OVCAR-5 ovarian, in the experiment on MDA-MB-231 breast, with NCI-H460 lung and in the experiment on SF-539 CNS was more than 100 µM throughout. Further, the TGI with SNB-19 CNS, with COLO 205 colon and in the experiment with SK-MEL-2 melanoma was more than 100 µM throughout.

Regarding `CC(C)(C)OC(=O)NCCCCC(NC(=O)c1ccccc1)C(N)=O` (stereo not drawn), the TGI with MDA-N, in the experiment on SNB-75 CNS, with OVCAR-5 ovarian, in the experiment on MDA-MB-231 breast, in the experiment on NCI-H460 lung and in the experiment with SF-539 CNS was more than 100 µM each time. For the same molecule, the TGI in the experiment with SNB-19 CNS, in the experiment on COLO 205 colon and in the experiment with SK-MEL-2 melanoma was more than 100 µM in each case.
